A word on the IC50: it is the point on the concentration scale where inhibition reaches its midpoint. The low end stands for higher potency, the high end for lower potency.

One test has as its target T1, human Glucose-dependent Insulinotropic Polypeptide Receptor (hGIPR) (Homo sapiens, UniProt P48546).
T1 sequence (P48546 22-466): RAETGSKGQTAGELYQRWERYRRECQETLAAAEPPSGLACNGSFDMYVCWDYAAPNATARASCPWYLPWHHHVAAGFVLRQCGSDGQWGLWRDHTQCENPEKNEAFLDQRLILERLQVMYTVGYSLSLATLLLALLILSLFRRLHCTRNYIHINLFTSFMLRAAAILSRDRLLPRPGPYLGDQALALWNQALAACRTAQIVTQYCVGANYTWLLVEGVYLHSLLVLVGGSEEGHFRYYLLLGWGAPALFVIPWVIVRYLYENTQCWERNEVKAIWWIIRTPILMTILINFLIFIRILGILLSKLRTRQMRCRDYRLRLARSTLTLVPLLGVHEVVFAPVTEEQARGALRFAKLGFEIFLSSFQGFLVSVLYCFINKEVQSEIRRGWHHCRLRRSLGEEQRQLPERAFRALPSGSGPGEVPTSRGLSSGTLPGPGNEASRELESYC
In words: Functional in vitro GIPR antagonist potency assay (intracellular cAMP, HTRF, hGIP stimulation at EC80). The class given is cell-based.
Settings: not given
For `Cc1cc(-n2ccc(NC(=O)[C@H]3CCCN3C(=O)Nc3ccc(OC(F)(F)F)cc3)n2)ccc1C(=O)O` [Example 11, 2-Methyl-4-{3-[(1-{[4-(trifluoromethoxy)phenyl]carbamoyl}-D-prolyl)amino]-1H-pyrazol-1-yl}benzoic Acid], the IC50 turned out to be 11 nM. Compound `Cc1cc(-n2ccc(NC(=O)[C@H]3CCCN3C(=O)Nc3ccc(C(F)(F)F)c(F)c3)n2)ccc1C(=O)O` [Example 9, 4-{3-[(1-{[3-Fluoro-4-(trifluoromethyl)phenyl]carbamoyl}-D-prolyl)amino]-1H-pyrazol-1-yl}-2-methylbenzoic Acid] displayed an IC50 of 19 nM. This IC50 lies about 1.7-fold higher than the previous one.

Still in this test, the particulars now being: geometric mean; CHO-K1 cells stably expressing human GIPR, cAMP after hGIP stimulation at EC80.
With `CC(C)c1ccc(NC(=O)N2CCC[C@@H]2C(=O)Nc2ccn(-c3ccc(CC(=O)O)cc3)n2)cc1` [Example 2, (4-{3-[(1-{[4-(Propan-2-yl)phenyl]carbamoyl}-D-prolyl)amino]-1H-pyrazol-1-yl}phenyl)acetic Acid], the IC50 was 25 nM. On to `Cc1cc(-n2ccc(NC(=O)[C@H]3CCCN3C(=O)Nc3ccc(C4CC4)c(C)c3)n2)ccc1C(=O)O` [Example 39, 4-[3-({1-[(4-cyclopropyl-3-methylphenyl)carbamoyl]-D-prolyl}amino)-1H-pyrazol-1-yl]-2-methylbenzoic acid], for which the IC50 stood at 27 nM. For `CC(C)c1ccc(NC(=O)N2CCC[C@@H]2C(=O)Nc2ccn(-c3ccc(C(=O)O)c(F)c3)n2)cc1` [Example 32, 2-fluoro-4-{3-[(1-{[4-(propan-2-yl)phenyl]carbamoyl}-D-prolyl)amino]-1H-pyrazol-1-yl}benzoic acid], the IC50 came to 280 nM. Still for that read-out and setting: as for `Cc1cc(-n2ccc(NC(=O)[C@H]3CCCN3C(=O)Nc3ccc(C(F)(F)F)c(Cl)c3)n2)ccc1C(=O)O` [Example 52, 4-{3-[(1-{[3-chloro-4-(trifluoromethyl)phenyl]carbamoyl}-D-prolyl)amino]-1H-pyrazol-1-yl}-2-methylbenzoic acid], the figure is 13 nM; as for `CC(C)c1ccc(NC(=O)N2CCC[C@@H]2C(=O)Nc2ccn(-c3ccc(C(=O)O)cn3)n2)cc1` [Example 21, 6-{3-[(1-{[4-(propan-2-yl)phenyl]carbamoyl}-D-prolyl)amino]-1H-pyrazol-1-yl}pyridine-3-carboxylic acid], 50 nM; as for `C=C(C)c1ccc(NC(=O)N2CCC[C@@H]2C(=O)Nc2ccn(-c3ccc(C(=O)O)c(C)c3)n2)cc1C` [Example 58, 2-methyl-4-{3-[(1-{[3-methyl-4-(prop-1-en-2-yl)phenyl]carbamoyl}-D-prolyl)amino]-1H-pyrazol-1-yl}benzoic acid], 8.8 nM.

Turning to `Cc1cc(-n2ccc(NC(=O)[C@H]3CCCN3C(=O)COc3ccc(C(F)(F)F)cc3)n2)ccc1C(N)=O` [Example 60, N-[1-(4-carbamoyl-3-methylphenyl)-1H-pyrazol-3-yl]-1-{[4-(trifluoromethyl)phenoxy]acetyl}-D-prolinamide], half-maximal inhibition (IC50) required 210 nM.

Take `O=C(O)c1ccc(-n2ccc(NC(=O)[C@H]3CCCN3C(=O)NCc3ccc(OC(F)(F)F)cc3)n2)cc1` [Example 33, 4-(3-{[1-{{[4-(trifluoromethoxy)phenyl]methyl}carbamoyl)-D-prolyl]amino}-1H-pyrazol-1-yl)benzoic acid]: inhibition was half-maximal at 90 nM (IC50). This IC50 lies about 2.3-fold lower than the previous one.

Compound `Cc1cc(-n2ccc(NC(=O)[C@H]3CCCN3C(=O)NCc3ccc(C(F)(F)F)cc3)n2)ccc1C(=O)O` [Example 40, 2-methyl-4-(3-{[1-{{[4-(trifluoromethyl)phenyl]methyl}carbamoyl)-D-prolyl]amino}-1H-pyrazol-1-yl)benzoic acid] yielded an IC50 of 150 nM. In turn, `Cc1cc(C(=O)O)ccc1-n1ccc(NC(=O)[C@H]2CCCN2C(=O)Nc2ccc(C(C)C)cc2)n1` [Example 25, 3-methyl-4-{3-[(1-{[4-(propan-2-yl)phenyl]carbamoyl}-D-prolyl)amino]-1H-pyrazol-1-yl}benzoic acid] came in with an IC50 of 98 nM. Compound `CC(C)c1ccc(NC(=O)N2CCC[C@@H]2C(=O)Nc2ccn(-c3ccc(C(N)=O)cc3)n2)cc1` [Example 35] had an IC50 of 120 nM. Regarding `Cc1cc(-n2ccc(NC(=O)[C@H]3CCCN3C(=O)COc3ccc(C(F)(F)F)c(F)c3)n2)ccc1C(=O)O` [Example 67, 4-{3-[(1-{[3-fluoro-4-(trifluoromethyl)phenoxy]acetyl}-D-prolyl)amino]-1H-pyrazol-1-yl}-2-methylbenzoic acid], the IC50 turned out to be 61 nM. Against the preceding compound, the IC50 is about 2-fold lower. As for `Cc1c(C(=O)O)ccc(-n2ccc(NC(=O)[C@H]3CCCN3C(=O)COc3ccc(C(F)(F)F)cc3)n2)c1F` [Example 64, 3-fluoro-2-methyl-4-{3-[(1-{[4-(trifluoromethyl)phenoxy]acetyl}-D-prolyl)amino]-1H-pyrazol-1-yl}benzoic acid], the IC50 worked out at 28 nM. In turn, `CC(C)c1ccc(NC(=O)N2CCC[C@@H]2C(=O)Nc2ccn(-c3ccc(C(=O)O)cc3)n2)cc1` [Example 22, 4-{3-[(1-{[4-(propan-2-yl)phenyl]carbamoyl}-D-prolyl)amino]-1H-pyrazol-1-yl}benzoic acid] had an IC50 of 22 nM. For the compound `CC(C)c1ccc(NC(=O)N2CCC[C@@H]2C(=O)Nc2ccn(-c3ccc(C(=O)O)cc3F)n2)cc1` [Example 24, 3-fluoro-4-{3-[(1-{[4-(propan-2-yl)phenyl]carbamoyl}-D-prolyl)amino]-1H-pyrazol-1-yl}benzoic acid], inhibition was half-maximal at 15 nM (IC50). This IC50 and that of the compound before are within 1.5-fold of each other. For the compound `CC(C)c1ccc(NC(=O)N2CCC[C@@H]2C(=O)Nc2ccn(-c3ccc(C(=O)O)cc3F)n2)cc1F` [Example 34, 3-fluoro-4-{3-[(1-{[3-fluoro-4-(propan-2-yl)phenyl]carbamoyl}-D-prolyl)amino]-1H-pyrazol-1-yl}benzoic acid], inhibition was half-maximal at 15 nM (IC50). As to `Cc1cc(-n2ccc(NC(=O)[C@H]3CCCN3C(=O)Nc3ccc(C4CCCC4)cc3)n2)ccc1C(=O)O` [Example 45, 4-[3-({1-[(4-cyclopentylphenyl)carbamoyl]-D-prolyl}amino)-1H-pyrazol-1-yl]-2-methylbenzoic acid], inhibition was half-maximal at 8.4 nM (IC50). Compared with the last compound, the IC50 is about 1.8-fold lower.

Source of the values: patent US20250326741A1, “GLUCOSE-DEPENDENT INSULINOTROPIC POLYPEPTIDE RECEPTOR ANTAGONISTS AND USES THEREOF” (Pfizer Inc., priority 2024, published 2025).
